Read-outs that look alike come from different tables or passages of the source.
Legend:
[1] = system: C2C12 myotubes
[2] = system: OXPHOS gene expression; format: cell-based, mouse
[3] = system: mtOXPHOS transcripts; format: cell-based, mouse
[4] = system: mitochondrial membrane potential; format: cell-based, mouse
[5] = system: cellular dehydrogenase activity
[6] = system: cytochrome c; format: cell-based, mouse
[7] = system: reactive oxygen species; format: cell-based, mouse
[8] = system: nuOXPHOS transcripts; format: cell-based, mouse
[9] = composite Z-score vs mock-treated (DMSO) wells, concentration of each compound in μM
[10] = composite Z-score vs DMSO, Conc 20 μM
[11] = 20 μM, composite Z-score vs DMSO
[12] = composite Z-score vs mock-treated (DMSO) wells, Conc 20 μM
[13] = normalized composite Z-score vs mock-treated (DMSO) wells, Conc 20 μM
[14] = Conc 20 μM, normalized score vs mock-treated (DMSO) wells

Chain of cytochrome c (P62897 whole entry): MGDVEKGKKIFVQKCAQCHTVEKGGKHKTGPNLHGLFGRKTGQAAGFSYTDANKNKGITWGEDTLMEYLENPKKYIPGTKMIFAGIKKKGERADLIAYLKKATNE

Compound: O=C(O)CCC/C=C\CC1COC(C(F)(F)F)OC1c1ccccc1O (stereo not shown)
- Viability [1, 9]: −0.413
- GE-HTS [2, 9]: 0.344
- mitoOX [3, 9]: 0.594
- ΔΨm [4, 9]: −0.087
- MTT [5, 9]: −0.548
- cyt c [6, 9]: −0.437
- ROS [7, 9]: 0.713
- nucOX [8, 9]: 0.169

Compound: CC[C@@]1(O)C[C@H](O)c2c(cc3c(c2O)C(=O)c2c(O)ccc(O)c2C3=O)[C@H]1C(=O)OC [rutilantinone]
- Viability [1, 10]: 0.192
- GE-HTS [2, 10]: −1.917
- mitoOX [3, 10]: −3.039
- ΔΨm [4, 10]: −3.758
- MTT [5, 10]: −2.979
- cyt c [6, 10]: 0.372
- ROS [7, 10]: 2.445
- nucOX [8, 10]: −1.152

Compound: Cc1cc(O)ccc1Cl [chlorocresol]
- Viability [1, 11]: −0.414
- GE-HTS [2, 11]: 0.206
- mitoOX [3, 11]: −0.728
- ΔΨm [4, 11]: 0.528
- MTT [5, 11]: −0.607
- cyt c [6, 11]: 0.747
- ROS [7, 11]: 0.102
- nucOX [8, 11]: 0.611

Compound: COC(=O)C[C@H]1C(C)(C)[C@@H](OC(C)=O)[C@@H]2CC3C4CC(=O)O[C@@H](c5ccoc5)[C@]4(C)CCC3[C@@]1(C)C2=O (stereo partly shown) [dihydrofissinolide]
- Viability [1, 12]: 0.139
- GE-HTS [2, 12]: −0.253
- mitoOX [3, 12]: 0.041
- ΔΨm [4, 12]: 0.196
- MTT [5, 12]: −1.189
- cyt c [6, 12]: −0.122
- ROS [7, 12]: 1.029
- nucOX [8, 12]: −0.350

Compound: CC(=O)O[C@@H]1C=C[C@]2(C)C(C[C@@H](OC(C)=O)[C@]3(C)C4=CC(=O)O[C@H](c5ccoc5)[C@@]4(C)CCC23)C1(C)C (stereo partly shown) [deoxygedunol acetate]
- Viability [1, 12]: −0.767
- GE-HTS [2, 12]: −0.815
- mitoOX [3, 12]: −0.639
- ΔΨm [4, 12]: 0.137
- MTT [5, 12]: −1.930
- cyt c [6, 12]: 0.095
- ROS [7, 12]: 1.251
- nucOX [8, 12]: −0.850

Compound: COc1ccc2c(c1)C1(C)CCC(=O)CC1CC2 (stereo not shown)
- Viability [1, 13]: −0.071
- GE-HTS [2, 13]: −0.632
- mitoOX [3, 13]: −0.652
- ΔΨm [4, 13]: −0.173
- MTT [5, 13]: −2.008
- cyt c [6, 13]: 0.380
- ROS [7, 13]: 1.860
- nucOX [8, 13]: −0.582

Compound: avocatin B
- Viability [1, 9]: −0.869
- GE-HTS [2, 9]: −0.935
- mitoOX [3, 9]: −0.852
- ΔΨm [4, 9]: 0.024
- MTT [5, 9]: −1.119
- cyt c [6, 9]: 0.710
- ROS [7, 9]: 1.229
- nucOX [8, 9]: −0.863

Compound: CC1CCC23CCC4(C)C5(C)CCC6C(C)(C)C(=O)CCC6(C)C5CCC4(OC2=O)C3C1C (stereo not shown) [3-oxoursan (28-13)olide]
- Viability [1, 13]: 0.638
- GE-HTS [2, 13]: −1.322
- mitoOX [3, 13]: −1.205
- ΔΨm [4, 13]: −0.332
- MTT [5, 13]: −1.871
- cyt c [6, 13]: 0.991
- ROS [7, 13]: 1.010
- nucOX [8, 13]: −1.228

Compound: CN[C@@H](Cc1c[nH]c2ccccc12)C(=O)O [abrine]
- Viability (composite Z-score) [1]: 0.206
- GE-HTS (composite Z-score) [2]: 0.459
- mitoOX (composite Z-score) [3]: 0.383
- ΔΨm (composite Z-score) [4]: −0.332
- MTT (composite Z-score) [5]: −1.203
- cyt c (composite Z-score) [6]: −0.094
- ROS (composite Z-score) [7]: 1.698
- nucOX (composite Z-score) [8]: 0.430

Compound: COc1ccc2cc([C@H](C)CO)ccc2c1 [naproxol]
- Viability [1, 10]: 0.249
- GE-HTS [2, 10]: −0.895
- mitoOX [3, 10]: −0.018
- ΔΨm [4, 10]: −0.500
- MTT [5, 10]: −1.522
- cyt c [6, 10]: 0.993
- ROS [7, 10]: −0.319
- nucOX [8, 10]: −1.214

Compound: COc1cc2ccc(=O)oc2cc1O [scopoletin]
- Viability [1]: 0.413
- Viability [1, 11]: 0.675
- GE-HTS [2]: −0.462
- GE-HTS [2, 11]: 0.543
- mitoOX [3]: −0.291
- mitoOX [3, 11]: 0.101
- ΔΨm [4]: 0.146
- ΔΨm [4, 11]: −0.056
- MTT [5]: 0.261
- MTT [5, 11]: −0.957
- cyt c [6]: 0.501
- cyt c [6, 11]: 0.928
- ROS [7]: −0.017
- ROS [7, 11]: 0.727
- nucOX [8]: −0.513
- nucOX [8, 11]: 0.746

Compound: NCCC(=O)c1ccccc1N [kynuramine]
- Viability [1, 13]: 0.319
- GE-HTS [2, 13]: 0.070
- mitoOX [3, 13]: 0.045
- ΔΨm [4, 13]: −0.127
- MTT [5, 13]: −1.264
- cyt c [6, 13]: 1.161
- ROS [7, 13]: 1.180
- nucOX [8, 13]: 0.093

Compound: C[C@@H]1[C@H]2[C@H](O[C@@H]3O[C@H](CO)[C@@H](O)[C@H](O)[C@H]3O)OC=C(C(=O)O)[C@H]2C[C@@H]1O [loganic acid]
- Viability (composite Z-score) [1, 14]: 1.214
- GE-HTS (composite Z-score) [2, 14]: −0.463
- mitoOX (composite Z-score) [3, 14]: −0.800
- ΔΨm (composite Z-score) [4, 14]: −0.193
- MTT (composite Z-score) [5, 14]: −0.538
- cyt c (composite Z-score) [6, 14]: −0.485
- ROS (composite Z-score) [7, 14]: −0.346
- nucOX (composite Z-score) [8, 14]: −0.274
